Results: ChEMBL document CHEMBL1201862, “PubChem BioAssay data set” (2004)
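Each compound was tested at five concentrations against cells in 96-well plates for 48 hours. The concentration for 50% growth inhibition is given as GI50.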 Calls of active or inactive are those of the source. Cut-off read from the data, not from the text of the source: active = GI50 up to about 1.1 µM and inactive = higher.

How the values were obtained:
Assay in all cases: NCI-60 cell line screen, 48 h
ACHN = tested on: ACHN
BT-549 = tested on: BT-549
COLO 205 = tested on: COLO 205
HCC 2998 = tested on: HCC 2998
HT-29 = tested on: HT-29
Hs-578T = tested on: Hs-578T
IGROV-1 = tested on: IGROV-1
KM12 = tested on: KM12
LOX IMVI = tested on: LOX IMVI
M14 = tested on: M14
MCF7 = tested on: MCF7
MDA-MB-231 = tested on: MDA-MB-231
MDA-N = tested on: MDA-N
NCI-H226 = tested on: NCI-H226
NCI-H23 = tested on: NCI-H23
OVCAR-3 = tested on: OVCAR-3
SNB-19 = tested on: SNB-19
T47D = tested on: T47D
UACC-257 = tested on: UACC-257
UO-31 = tested on: UO-31

Measured: GI50

O=C(Nn1c(-c2ccccc2)nc2ccccc2c1=O)c1ccc(CS)cc1
inactive: ACHN 54.5 µM | BT-549 22.4 µM | COLO 205 60.3 µM | HCC 2998 > 100 µM | HT-29 53 µM | Hs-578T 35.6 µM | IGROV-1 26.1 µM | KM12 81.1 µM | LOX IMVI 1.67 µM | M14 47.6 µM | MCF7 29.8 µM | MDA-MB-231 37 µM | MDA-N 61.2 µM | NCI-H226 37.7 µM | NCI-H23 49.9 µM | OVCAR-3 67.6 µM | SNB-19 > 100 µM | T47D > 100 µM | UACC-257 > 100 µM | UO-31 46.3 µM

O=C(/C=C/c1ccc(OCc2ccccc2)cc1)NCc1ccc(C(=O)NCc2ccccc2)cc1
inactive: ACHN > 100 µM | BT-549 > 100 µM | COLO 205 > 100 µM | HCC 2998 > 100 µM | HT-29 > 100 µM | Hs-578T > 100 µM | IGROV-1 > 100 µM | KM12 > 100 µM | LOX IMVI > 100 µM | M14 > 100 µM | MCF7 > 100 µM | MDA-MB-231 > 100 µM | MDA-N > 100 µM | NCI-H226 > 100 µM | NCI-H23 > 100 µM | OVCAR-3 > 100 µM | SNB-19 > 100 µM | T47D > 100 µM | UACC-257 > 100 µM | UO-31 > 100 µM

Cc1ccc(/C=C/C(=O)c2c([O-])on[n+]2-c2ccccc2)cc1
inactive: ACHN 1.87 µM | BT-549 2.72 µM | COLO 205 2.69 µM | HCC 2998 2.01 µM | HT-29 1.9 µM | Hs-578T 2.47 µM | IGROV-1 2.73 µM | KM12 2.39 µM | LOX IMVI 1.88 µM | M14 2.34 µM | MCF7 3.53 µM | MDA-MB-231 4.98 µM | MDA-N 2.92 µM | NCI-H226 3.79 µM | NCI-H23 4.61 µM | OVCAR-3 3.1 µM | SNB-19 3.98 µM | T47D 2.84 µM | UACC-257 3.64 µM | UO-31 2.62 µM
